What was measured:
PANDI (fall panicum) = assay: Pre-emergence herbicidal activity, warm season; format: in vivo, Panicum dichotomiflorum; conditions: GR80 = lowest tested rate (300, 100, 30, 10 g/ha) with 80% or greater inhibition; approx. 14 days after treating; 30/21° C.
Outline: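 Activity is expressed as the rate giving 80% inhibition, with 300, 100, 30 and 10 g/ha typically tested. An asterisk marks activity short of 80% at the top rate. Warm-season grasses were held at 30/21 °C; cool-season blackgrass and wild buckwheat at 18/13 °C; scoring at about 14 days.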

STEME (common chickweed) = assay: Pre-emergence herbicidal activity, cool season; format: in vivo, Stellaria media; conditions: lowest tested rate with 80% or greater inhibition; rates 300, 100, 30, 10 g/ha; about 14 days
Outline: (§1)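 Seeds sown in sterilised fertilised topsoil received surface-applied compound in 50:50 acetone/water, typically at 300, 100, 30 and 10 g/ha, then greenhouse-grown at 30/21° C (warm-season species) or 18/13° C (cool-season species). Percent inhibition versus untreated plants was scored at about 14 days, giving GR80; an asterisk marks activity short of 80% at the top rate.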

AVEFA (wild oat) = assay: Pre-plant incorporated (PPI) herbicidal activity, cool season; format: in vivo, Avena fatua; conditions: for Percent inhibition AVEFA: weed, PPI application; for PPI activity GR80, AVEFA: pre-plant incorporated, lowest tested rate with 80% or greater inhibition, about 14 days
Outline: (§2)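 Seeds sown on compacted topsoil were covered with soil into which test compound (organic solvent solution/suspension) had been sprayed and mixed; untreated cover soil for controls. Greenhouse, 0.64 cm overhead irrigation; warm season 30/21° C, cool season 18/13° C day/night. Percent inhibition versus untreated scored ~14 days after treatment.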

POLCO (wild buckwheat) = assay: Pre-emergence herbicidal activity, cool season; format: in vivo, Polygonum convolvulus; conditions: lowest tested rate with 80% or greater inhibition; rates 300, 100, 30, 10 g/ha; about 14 days
Outline: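 Herbicidal efficacy was judged visually as percent inhibition compared with untreated plants some 14 days after treatment, giving GR80 over doses of 10 to 300 g/ha. Proso millet and crabgrass grew at 30/21 °C; blackgrass and wild buckwheat grew at 18/13 °C.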

corn (ZEAMX) = assay: Selectivity test, PPI, warm season crop; format: in vivo, Zea mays; conditions: PPI application
Outline: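 Pre-plant incorporated: compound in organic solvent sprayed onto cover soil, mixed and laid over seeds; untreated soil for controls. Greenhouse after treatment: warm season 30/21° C., cool season 18/13° C. day/night. Percent inhibition versus untreated plants scored about 14 days after planting.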

ALOMY (blackgrass) = assay: Pre-plant incorporated (PPI) herbicidal activity, cool season; format: in vivo, Alopecurus myosuroides; conditions: for Percent inhibition ALOMY: weed, PPI application; for PPI activity GR80, ALOMY: pre-plant incorporated, lowest tested rate with 80% or greater inhibition, about 14 days
Outline: as §2

SINAR (wild mustard) = assay: as above; format: in vivo, Sinapis arvensis; conditions: for Percent inhibition SINAR: weed, PPI application; for PPI activity GR80, SINAR: pre-plant incorporated, lowest tested rate with 80% or greater inhibition, about 14 days
Outline: as §2

[1] = test system: AGSST (creeping bentgrass); assay: Pre-emergence herbicidal activity, cool season; format: in vivo, Agrostis stolonifera; conditions: GR80 = lowest tested rate (300, 100, 30, 10 g/ha) with 80% or greater inhibition; approx. 14 days after treating; 18/13° C.
Outline: as §1

BROTE (downy brome) = assay: Pre-plant incorporated (PPI) herbicidal activity, cool season; format: in vivo, Bromus tectorum; conditions: for Percent inhibition BROTE: weed, PPI application; for PPI activity GR80, BROTE: pre-plant incorporated, lowest tested rate with 80% or greater inhibition, about 14 days
Outline: as §2

[2] = test system: BRAPP (broadleaf signalgrass); assay: Pre-plant incorporated (PPI) herbicidal activity, warm season; format: in vivo, Brachiaria platyphylla; conditions: for Percent inhibition BRAPP: PPI application; for PPI activity GR80, BRAPP: pre-plant incorporated, lowest tested rate with 80% or greater inhibition, about 14 days
Outline: as §2

Row | SMILES | Pre-emergence activity (GR80) PANDI (PANDI (fall panicum)) [g/ha] | Pre-emergence activity GR80, STEME (STEME (common chickweed)) | Percent inhibition AVEFA (AVEFA (wild oat); 10 g/ha) [%] | Percent inhibition AVEFA (AVEFA (wild oat); 30 g/ha) [%] | Percent inhibition AVEFA (AVEFA (wild oat); 100 g/ha) [%] | Percent inhibition AVEFA (AVEFA (wild oat); 300 g/ha) [%] | Percent inhibition AVEFA (AVEFA (wild oat); 900 g/ha) [%] | Pre-emergence activity GR80, POLCO (POLCO (wild buckwheat)) | Percent inhibition ZEAMX (corn (ZEAMX); 10 g/ha) [%] | Percent inhibition ZEAMX (corn (ZEAMX); 30 g/ha) [%] | Percent inhibition ZEAMX (corn (ZEAMX); 100 g/ha) [%] | Percent inhibition ZEAMX (corn (ZEAMX); 300 g/ha) [%] | Percent inhibition ZEAMX (corn (ZEAMX); 900 g/ha) [%] | Percent inhibition ALOMY (ALOMY (blackgrass); 10 g/ha) [%] | Percent inhibition ALOMY (ALOMY (blackgrass); 30 g/ha) [%] | Percent inhibition ALOMY (ALOMY (blackgrass); 100 g/ha) [%] | Percent inhibition ALOMY (ALOMY (blackgrass); 300 g/ha) [%] | Percent inhibition ALOMY (ALOMY (blackgrass); 900 g/ha) [%] | Percent inhibition SINAR (SINAR (wild mustard); 10 g/ha) [%] | Percent inhibition SINAR (SINAR (wild mustard); 30 g/ha) [%] | also measured
1 | CCN(CC)C(=O)n1cnc(S(=O)(=O)C(F)(F)SCc2ccccc2)n1 [Example 10] | 300 | 300 g/ha | 0 | 0 | 20 | 40 | 95 | [empty] | 0 | 0 | 0 | 10 | 40 | 0 | 50 | 100 | 95 | 100 | 0 | 90 | Percent inhibition SINAR (SINAR (wild mustard); 100 g/ha): 100%; Percent inhibition SINAR (SINAR (wild mustard); 300 g/ha): 80%; Percent inhibition SINAR (SINAR (wild mustard); 900 g/ha): 100%; Pre-emergence activity (GR80) AGSST [1]: 100 g/ha; Percent inhibition BROTE (BROTE (downy brome); 10 g/ha): 0%; Percent inhibition BROTE (BROTE (downy brome); 30 g/ha): 0%; Percent inhibition BROTE (BROTE (downy brome); 100 g/ha): 10%; Percent inhibition BROTE (BROTE (downy brome); 300 g/ha): 35%; Percent inhibition BROTE (BROTE (downy brome); 900 g/ha): 60%; Percent inhibition BRAPP ([2]; 10 g/ha): 0%; Percent inhibition BRAPP ([2]; 30 g/ha): 20%; Percent inhibition BRAPP ([2]; 100 g/ha): 70%; Percent inhibition BRAPP ([2]; 300 g/ha): 100%; Percent inhibition BRAPP ([2]; 900 g/ha): 100%
2 | C=C(CC(F)(F)S(=O)(=O)c1ncn(C(=O)N(CC)CC)n1)C[Si](C)(C)C [Example 20] | 300 | [empty] | 0 | 0 | 0 | 0 | 60 | * (activity observed, at least at highest rate, but <80% inhibition) | 0 | 0 | 0 | 20 | 40 | 0 | 0 | 20 | 50 | 100 | 30 | 80 | PPI activity GR80, AVEFA (AVEFA (wild oat)): 300 g/ha; PPI activity GR80, ALOMY (ALOMY (blackgrass)): 100 g/ha; PPI activity GR80, SINAR (SINAR (wild mustard)): * (activity observed, at least at highest rate, but <80% inhibition); Percent inhibition SINAR (SINAR (wild mustard); 100 g/ha): 80%; Percent inhibition SINAR (SINAR (wild mustard); 300 g/ha): 60%; Percent inhibition SINAR (SINAR (wild mustard); 900 g/ha): 70%; Pre-emergence activity (GR80) AGSST [1]: 300 g/ha; PPI activity GR80, BROTE (BROTE (downy brome)): 300 g/ha; Percent inhibition BROTE (BROTE (downy brome); 10 g/ha): 0%; Percent inhibition BROTE (BROTE (downy brome); 30 g/ha): 0%; Percent inhibition BROTE (BROTE (downy brome); 100 g/ha): 0%; Percent inhibition BROTE (BROTE (downy brome); 300 g/ha): 40%; Percent inhibition BROTE (BROTE (downy brome); 900 g/ha): 50%; Percent inhibition BRAPP ([2]; 10 g/ha): 0%; Percent inhibition BRAPP ([2]; 30 g/ha): 0%; Percent inhibition BRAPP ([2]; 100 g/ha): 0%; Percent inhibition BRAPP ([2]; 300 g/ha): 30%; Percent inhibition BRAPP ([2]; 900 g/ha): 60%; PPI activity GR80, BRAPP [2]: 100 g/ha
3 | CCN(CC)C(=O)n1cnc(S(=O)(=O)C(F)(F)SCCOC)n1 [Example 13] | 300 | 100 g/ha | 0 | 0 | 0 | 50 | 90 | [empty] | 0 | 0 | 5 | 10 | 50 | 40 | 90 | 99 | 99 | 100 | 70 | 100 | PPI activity GR80, AVEFA (AVEFA (wild oat)): [empty]; PPI activity GR80, ALOMY (ALOMY (blackgrass)): 100 g/ha; PPI activity GR80, SINAR (SINAR (wild mustard)): [empty]; Percent inhibition SINAR (SINAR (wild mustard); 100 g/ha): 100%; Percent inhibition SINAR (SINAR (wild mustard); 900 g/ha): 100%; Pre-emergence activity (GR80) AGSST [1]: 100 g/ha; PPI activity GR80, BROTE (BROTE (downy brome)): * (activity observed, at least at highest rate, but <80% inhibition); Percent inhibition BROTE (BROTE (downy brome); 10 g/ha): 0%; Percent inhibition BROTE (BROTE (downy brome); 30 g/ha): 0%; Percent inhibition BROTE (BROTE (downy brome); 100 g/ha): 10%; Percent inhibition BROTE (BROTE (downy brome); 300 g/ha): 20%; Percent inhibition BROTE (BROTE (downy brome); 900 g/ha): 85%; Percent inhibition BRAPP ([2]; 10 g/ha): 40%; Percent inhibition BRAPP ([2]; 30 g/ha): 80%; Percent inhibition BRAPP ([2]; 100 g/ha): 95%; Percent inhibition BRAPP ([2]; 300 g/ha): 99%; Percent inhibition BRAPP ([2]; 900 g/ha): 100%; PPI activity GR80, BRAPP [2]: 100 g/ha

Reference: patent US6461997B1, “Triazole sulfones having herbicidal activity” (Monsanto Technology LLC, priority 1999, dated 2002)
